ChEMBL document CHEMBL3217577, “Recent applications of multicomponent reactions in medicinal chemistry” (Medchemcomm, 2012)
≈ marks a conversion by molar mass, not a printed value.

What was measured:
MCF7 = test: Antiproliferative activity against human MCF7 cells; assay type: functional, cell-based
[1] = Inhibition of Mycobacterium tuberculosis protein tyrosine phosphatase B
[2] = target: T1, E3 ubiquitin-protein ligase Mdm2 (Homo sapiens, UniProt Q00987); test: Binding affinity to HDM2 ( unknown origin) by NMR analysis
[3] = target: T2, Tumour suppressor p53/oncoprotein Mdm2 (Homo sapiens, UniProt Q00987); test: Inhibition of Mdm2-p53 interaction in human PA-1 cells; assay type: cell-based
[4] = target: T1, E3 ubiquitin-protein ligase Mdm2; test: Inhibition of Mdm2 in p53-deficient human PA-1 cells; assay type: cell-based
[5] = target: Mitogen-activated protein kinase 14 (Homo sapiens, UniProt Q16539); test: Inhibition of p38 alpha MAP kinase (unknown origin)
[6] = target: T2, Tumour suppressor p53/oncoprotein Mdm2; test: Competitive inhibition of recombinant human Mdm2 (aa 1 to 118)-p53 ( 1 to 321) interaction; assay type: protein assay
Plasmodium falciparum [7] = test: Ratio of chloroquine IC50 to compound IC50 for chloroquine-resistant Plasmodium falciparum; assay type: functional
Plasmodium falciparum [8] = test: Antiparasitic activity against chloroquine-resistant Plasmodium falciparum; assay type: functional, organism-based
Trypanosoma cruzi = test: Antiparasitic activity against epimastigote stage of Trypanosoma cruzi assessed as growth inhibition at 50 uM; assay type: functional
Aurora kinase A = target: T3, Aurora kinase A (Homo sapiens, UniProt O14965); test: Inhibition of Aurora A kinase (unknown origin)
T3 sequence (O14965 whole entry): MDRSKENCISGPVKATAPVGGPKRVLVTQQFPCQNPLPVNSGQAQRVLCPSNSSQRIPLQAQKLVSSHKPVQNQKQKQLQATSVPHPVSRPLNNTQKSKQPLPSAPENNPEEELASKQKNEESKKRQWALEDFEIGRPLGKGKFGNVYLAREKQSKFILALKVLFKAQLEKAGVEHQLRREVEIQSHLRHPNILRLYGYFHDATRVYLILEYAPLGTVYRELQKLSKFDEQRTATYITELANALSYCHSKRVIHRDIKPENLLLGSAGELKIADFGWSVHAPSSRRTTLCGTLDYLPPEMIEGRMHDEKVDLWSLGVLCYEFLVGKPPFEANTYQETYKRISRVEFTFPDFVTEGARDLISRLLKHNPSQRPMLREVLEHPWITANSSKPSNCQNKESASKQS

[9] = target: T4, M-phase inducer phosphatase 2 (Homo sapiens, UniProt P30305); test: Inhibition of CDC25B (unknown origin)
T4 sequence (P30305 whole entry): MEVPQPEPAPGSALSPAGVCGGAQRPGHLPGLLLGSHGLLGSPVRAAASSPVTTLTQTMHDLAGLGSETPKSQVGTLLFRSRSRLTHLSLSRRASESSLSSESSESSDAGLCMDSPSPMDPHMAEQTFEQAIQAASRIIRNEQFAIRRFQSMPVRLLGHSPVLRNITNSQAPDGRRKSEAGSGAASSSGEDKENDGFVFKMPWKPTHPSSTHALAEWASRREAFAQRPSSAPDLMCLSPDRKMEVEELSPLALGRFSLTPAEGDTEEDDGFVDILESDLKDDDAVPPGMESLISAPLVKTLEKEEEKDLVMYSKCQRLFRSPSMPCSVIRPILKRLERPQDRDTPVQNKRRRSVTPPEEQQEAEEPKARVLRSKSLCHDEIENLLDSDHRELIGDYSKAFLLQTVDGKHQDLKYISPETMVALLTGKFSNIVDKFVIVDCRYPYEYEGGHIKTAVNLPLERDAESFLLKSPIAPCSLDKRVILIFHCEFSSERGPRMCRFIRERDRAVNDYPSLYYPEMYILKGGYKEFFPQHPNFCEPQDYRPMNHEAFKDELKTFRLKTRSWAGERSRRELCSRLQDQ

[10] = target: T5, Tyrosine-protein phosphatase non-receptor type 2 (Homo sapiens, UniProt P17706); test: Inhibition of TC-PTP (unknown origin)
T5 sequence (P17706 whole entry): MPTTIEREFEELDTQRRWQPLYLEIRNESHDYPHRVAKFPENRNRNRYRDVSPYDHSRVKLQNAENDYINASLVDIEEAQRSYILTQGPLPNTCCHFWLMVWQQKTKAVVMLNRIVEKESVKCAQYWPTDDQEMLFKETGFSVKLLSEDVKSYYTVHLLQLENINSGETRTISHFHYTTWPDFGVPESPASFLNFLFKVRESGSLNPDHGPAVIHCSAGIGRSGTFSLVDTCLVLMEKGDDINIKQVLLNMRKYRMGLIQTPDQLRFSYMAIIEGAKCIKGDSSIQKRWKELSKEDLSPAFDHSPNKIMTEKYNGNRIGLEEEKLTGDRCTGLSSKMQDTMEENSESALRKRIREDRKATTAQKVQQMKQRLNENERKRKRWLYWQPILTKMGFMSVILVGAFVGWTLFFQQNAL

[11] = target: T6, Tyrosine-protein phosphatase non-receptor type 1 (Homo sapiens, UniProt P18031); test: Inhibition of PTP1B (unknown origin)
T6 sequence (P18031 whole entry): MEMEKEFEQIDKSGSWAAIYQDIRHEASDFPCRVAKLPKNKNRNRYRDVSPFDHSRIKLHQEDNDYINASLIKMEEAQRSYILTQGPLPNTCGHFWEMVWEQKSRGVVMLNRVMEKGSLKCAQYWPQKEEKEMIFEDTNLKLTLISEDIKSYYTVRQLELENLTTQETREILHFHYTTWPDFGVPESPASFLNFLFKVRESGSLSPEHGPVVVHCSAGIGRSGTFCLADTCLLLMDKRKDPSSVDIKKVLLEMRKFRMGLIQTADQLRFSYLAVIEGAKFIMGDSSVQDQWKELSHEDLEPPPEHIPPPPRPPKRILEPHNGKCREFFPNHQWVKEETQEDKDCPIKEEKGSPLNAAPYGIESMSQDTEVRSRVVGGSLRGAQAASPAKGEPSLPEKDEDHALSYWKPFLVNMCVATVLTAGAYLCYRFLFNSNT

[12] = target: Glycogen synthase kinase-3 beta (Mus musculus, UniProt Q9WV60); test: Inhibition of recombinant mouse GSK3beta expressed in COS-1 cells by luciferase reporter gene assay; assay type: cell-based
HeLa = test: Antiproliferative activity against human HeLa cells; assay type: functional
[13] = tested on: Mycobacterium tuberculosis; test: Antibacterial activity against Mycobacterium tuberculosis H37Ra; assay type: functional
Prolyl endopeptidase = target: T7, Prolyl endopeptidase (Homo sapiens, UniProt P48147); test: Inhibition of purified prolyl oligopeptidase (unknown origin) after 1 hr by spectrophotometry
T7 sequence (P48147 whole entry): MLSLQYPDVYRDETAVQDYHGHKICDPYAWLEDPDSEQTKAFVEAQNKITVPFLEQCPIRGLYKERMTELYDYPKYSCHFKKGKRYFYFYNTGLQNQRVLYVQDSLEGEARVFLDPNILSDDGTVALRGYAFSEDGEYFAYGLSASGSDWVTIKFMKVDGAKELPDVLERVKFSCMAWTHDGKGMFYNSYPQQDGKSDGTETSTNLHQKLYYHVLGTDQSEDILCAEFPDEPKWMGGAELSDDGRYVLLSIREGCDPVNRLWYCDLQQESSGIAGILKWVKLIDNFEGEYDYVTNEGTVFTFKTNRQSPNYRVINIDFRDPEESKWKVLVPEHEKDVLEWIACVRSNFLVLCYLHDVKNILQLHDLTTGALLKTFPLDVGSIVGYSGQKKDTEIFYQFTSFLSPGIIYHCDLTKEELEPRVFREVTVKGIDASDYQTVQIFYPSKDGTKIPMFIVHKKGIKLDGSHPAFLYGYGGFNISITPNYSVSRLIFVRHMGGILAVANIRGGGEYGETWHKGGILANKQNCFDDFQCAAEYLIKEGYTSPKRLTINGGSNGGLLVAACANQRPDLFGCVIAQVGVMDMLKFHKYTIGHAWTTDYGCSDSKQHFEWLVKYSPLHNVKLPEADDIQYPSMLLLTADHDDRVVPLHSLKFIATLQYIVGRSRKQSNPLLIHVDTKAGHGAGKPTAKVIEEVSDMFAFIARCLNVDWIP

Plasmodium falciparum [14] = test: Antiparasitic activity against chloroquine-resistant Plasmodium falciparum assessed as inhibition of parasite survival; assay type: functional, organism-based
PC-3 = test: Cytotoxicity against human PC3 cells; assay type: functional
HT-29 = test: Cytotoxicity against human HT-29 cells; assay type: functional

T2 sequence (P04637 whole entry): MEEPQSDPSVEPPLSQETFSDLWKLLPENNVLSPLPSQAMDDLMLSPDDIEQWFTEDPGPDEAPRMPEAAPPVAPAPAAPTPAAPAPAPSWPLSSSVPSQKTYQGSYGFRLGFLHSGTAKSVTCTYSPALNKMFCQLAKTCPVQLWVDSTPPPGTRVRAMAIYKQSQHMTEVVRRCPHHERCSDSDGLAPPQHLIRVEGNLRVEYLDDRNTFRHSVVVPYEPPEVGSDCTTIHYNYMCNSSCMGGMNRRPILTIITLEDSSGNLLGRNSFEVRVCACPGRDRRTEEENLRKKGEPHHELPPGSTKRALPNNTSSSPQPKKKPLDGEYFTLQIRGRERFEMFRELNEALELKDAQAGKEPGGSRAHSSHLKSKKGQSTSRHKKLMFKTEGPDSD
T2 sequence (Q00987 whole entry): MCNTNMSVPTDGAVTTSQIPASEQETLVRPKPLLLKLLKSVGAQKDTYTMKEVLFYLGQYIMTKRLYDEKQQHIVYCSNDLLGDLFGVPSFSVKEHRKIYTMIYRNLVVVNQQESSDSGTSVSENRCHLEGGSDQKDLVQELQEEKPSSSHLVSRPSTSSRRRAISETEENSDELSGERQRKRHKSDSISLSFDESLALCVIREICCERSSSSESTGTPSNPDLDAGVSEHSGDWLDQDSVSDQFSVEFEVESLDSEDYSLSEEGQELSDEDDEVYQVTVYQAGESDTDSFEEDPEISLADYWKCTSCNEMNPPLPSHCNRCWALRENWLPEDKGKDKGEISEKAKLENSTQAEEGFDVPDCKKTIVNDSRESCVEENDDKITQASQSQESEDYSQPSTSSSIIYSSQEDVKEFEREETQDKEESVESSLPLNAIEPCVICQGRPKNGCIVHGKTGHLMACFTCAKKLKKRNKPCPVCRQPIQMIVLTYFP
T1 sequence (Q00987 whole entry): as above
Mitogen-activated protein kinase 14, sequence (Q16539 whole entry, the tested form may be a part): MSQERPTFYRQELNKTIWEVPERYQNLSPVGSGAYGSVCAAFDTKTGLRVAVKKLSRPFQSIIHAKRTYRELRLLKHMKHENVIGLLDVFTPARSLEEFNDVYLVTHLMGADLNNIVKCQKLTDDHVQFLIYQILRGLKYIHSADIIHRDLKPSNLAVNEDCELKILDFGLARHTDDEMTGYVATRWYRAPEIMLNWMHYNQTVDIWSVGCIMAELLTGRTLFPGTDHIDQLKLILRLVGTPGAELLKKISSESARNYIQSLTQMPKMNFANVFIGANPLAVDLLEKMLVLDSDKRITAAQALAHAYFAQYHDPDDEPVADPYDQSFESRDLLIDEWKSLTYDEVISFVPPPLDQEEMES
Glycogen synthase kinase-3 beta, sequence (Q9WV60 whole entry): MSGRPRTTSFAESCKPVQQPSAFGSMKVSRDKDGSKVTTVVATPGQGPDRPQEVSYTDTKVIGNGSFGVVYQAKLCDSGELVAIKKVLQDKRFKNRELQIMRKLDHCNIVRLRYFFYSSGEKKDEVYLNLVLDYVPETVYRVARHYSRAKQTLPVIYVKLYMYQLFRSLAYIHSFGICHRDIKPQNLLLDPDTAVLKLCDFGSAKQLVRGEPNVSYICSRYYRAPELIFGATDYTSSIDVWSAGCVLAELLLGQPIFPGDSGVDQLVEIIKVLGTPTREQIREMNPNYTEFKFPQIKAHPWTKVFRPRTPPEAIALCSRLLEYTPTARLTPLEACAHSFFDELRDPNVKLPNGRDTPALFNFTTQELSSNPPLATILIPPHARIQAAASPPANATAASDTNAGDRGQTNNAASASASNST

**Q.** With N#CC1=C(N)Oc2ccc3ccccc3c2C1c1ccc([N+](=O)[O-])cc1 (stereo not given) as the compound, how does the IC50 (MCF7) read?
**A.** 8.9 µg/mL (≈ 25.9 µM)

**Q.** With COc1ccc(NN2[C@@H]([C@H](O)c3cc(Br)c(OC)c(OC)c3)C=C[C@H]3C(=O)N(C4CCCCC4)C(=O)[C@H]32)cc1 as the compound, how does the IC50 [1] read?
**A.** 66000 nM

**Q.** With O=C1C(O)=C(c2ccccc2)C(c2ccc(Cl)cc2)N1Cc1ccc(Cl)cc1 (stereo not given) as the compound, how does the Kd [2] read?
**A.** > 200000 nM

**Q.** What about the IC50 [3] of the same compound?
**A.** 12200 nM

**Q.** And the IC50 [4]?
**A.** 26200 nM

**Q.** Which IC50 [1] does the source give for O=C1NC(=O)[C@@H]2C=C[C@H]([C@H](O)C3CC=CCC3)N(Nc3ccc(Cl)cc3Cl)[C@H]12 (stereo not given in full) here?
**A.** 68000 nM

**Q.** Which IC50 [5] does the source give for Cc1ccoc1-c1cc(-c2ccc(Br)cc2)[nH]c(=N)c1C#N here?
**A.** 70 nM

**Q.** With O=C(NCc1ccccc1)C1C(=O)Nc2sc3c(c2C(=O)N1Cc1ccc(Cl)cc1)CCCC3 (stereo not given) as the compound, how does the Ki [6] read?
**A.** 40000 nM

**Q.** For COC(=O)C1=C(C)N(C)C(=O)N(C(=O)NCCCCNc2ccnc3cc(Cl)ccc23)C1c1ccc(OC)cc1 (stereo not given), which “Ratio IC50” value (Plasmodium falciparum [7]) is on record?
**A.** 200

**Q.** And the IC50 (Plasmodium falciparum [8])?
**A.** 4 nM

**Q.** Which inhibition at 50 µM (Trypanosoma cruzi) does the source give for CNC(=O)CC1S/C(=N\N=C(/C)c2ccc(Br)cc2)N(C)C1=O (stereo not given) here?
**A.** 60%

**Q.** With Cc1ccc(S(=O)(=O)/N=C(\Nc2ccc(Cl)cc2)NC(C)(C)C)cc1 as the compound, how does the Kd [2] read?
**A.** > 100000 nM

**Q.** With CC1CS(=O)(=O)CCN1/N=C/c1ccc([N+](=O)[O-])o1 (stereo not given) [NIFURTIMOX] as the compound, how does the inhibition at 50 µM (Trypanosoma cruzi) read?
**A.** 100%

**Q.** Which “Ratio IC50” value (Plasmodium falciparum [7]) does the source give for CC(NCCCNc1ccnc2cc(Cl)ccc12)c1nc(Cc2ccccc2)c(N2CCOCC2)o1 (stereo not given) here?
**A.** 21

**Q.** What about the IC50 (Plasmodium falciparum [8]) of the same compound?
**A.** 3.8 nM

**Q.** Which IC50 (Aurora kinase A) does the source give for COC(c1ccc(C)cc1)c1cnn2c(-c3ccccc3)cc3c(Cl)cccc3c12 (stereo not given) here?
**A.** 13400 nM

**Q.** And the IC50 [9]?
**A.** 2190 nM

**Q.** And the IC50 [10]?
**A.** 4500 nM

**Q.** And the IC50 [11]?
**A.** 1000 nM

**Q.** For CC/C(=C(\c1ccccc1)c1ccc(OCCN(C)C)cc1)c1ccccc1 [TAMOXIFEN], which IC50 (MCF7) is on record?
**A.** 10 µg/mL (≈ 26.9 µM)

**Q.** For c1cnc2nc(-c3ccc4[nH]ncc4c3)c(NC3CCCCC3)n2c1, which Ki [12] is on record?
**A.** 10 nM

**Q.** Which GI50 (HeLa) does the source give for Cn1c(=O)c2c(c3ccccc31)OC(N)=C(C#N)C2c1cncc(Br)c1 (stereo not given) here?
**A.** 13 nM

**Q.** Which MIC [13] does the source give for COc1ccc(C2Nc3ccccc3C3CCCOC32)cc1 (stereo not given) here?
**A.** 6.25 µM (≈ 1.85 µg/mL)

**Q.** With CCOC(=O)c1ccc2c(c1)c1c(c(-c3cccc4ccccc34)[n+]2C)CCO1 as the compound, how does the IC50 (Prolyl endopeptidase) read?
**A.** 75000 nM

**Q.** Which IC50 (Plasmodium falciparum [8]) does the source give for CC1(C(=O)NC2CCCCC2)CCCC(=O)N1CCCCCNc1ccnc2cc(Cl)ccc12 (stereo not given) here?
**A.** 96 nM

**Q.** Which IC50 (Plasmodium falciparum [14]) does the source give for O=C(CN(CCCNc1ccnc2cc(Cl)ccc12)C(=O)c1cnccn1)NC1CCCCC1 here?
**A.** 540 nM

**Q.** For N#Cc1c(-c2ccc(Cl)c(Cl)c2)cc(-c2ccc(Br)cc2)nc1N, which IC50 [5] is on record?
**A.** 120 nM

**Q.** Which GI50 (PC-3) does the source give for CC[C@@H](C)[C@H](NC(=O)[C@H]1CCCCN1C)C(=O)N(COC(=O)CC(C)C)[C@H](C[C@@H](OC(C)=O)c1nc(C(=O)N[C@@H](Cc2ccc(O)cc2)C[C@H](C)C(=O)O)cs1)C(C)C [TUBULYSIN A] here?
**A.** 0.21 nM

**Q.** And the GI50 (HT-29)?
**A.** 0.32 nM

**Q.** With CC1(C)CC(=O)C2=C(C1)Oc1ccc3ccccc3c1C2c1ccc(O)cc1 (stereo not given) as the compound, how does the IC50 (MCF7) read?
**A.** 6.7 µg/mL (≈ 18.1 µM)

**Q.** Which GI50 (HeLa) does the source give for Cc1cc2c(c(=O)n1C)C(c1ccc(N(C)C)c(Br)c1)C(C#N)=C(N)O2 (stereo not given) here?
**A.** 330 nM

**Q.** For O=C(CN(CCCNc1ccnc2cc(Cl)ccc12)C(=O)c1ccncc1)NC1CCCCC1, which IC50 (Plasmodium falciparum [14]) is on record?
**A.** 610 nM

**Q.** With O=C(NCc1ccc(Cl)c(Cl)c1)C1C(=O)Nc2sc3c(c2C(=O)N1Cc1ccc(Cl)cc1)CCCC3 (stereo not given) as the compound, how does the Ki [6] read?
**A.** 45000 nM

**Q.** What does the source list for CC(=O)O[C@H]1C(=O)[C@@]2(C)[C@H]([C@H](OC(=O)c3ccccc3)[C@]3(O)C[C@H](OC(=O)[C@H](O)[C@@H](NC(=O)c4ccccc4)c4ccccc4)C(C)=C1C3(C)C)[C@]1(OC(C)=O)CO[C@@H]1C[C@@H]2O [PACLITAXEL]?
**A.** GI50 (PC-3; Homo sapiens, PC-3): 7.2 nM; GI50 (HT-29; Homo sapiens, HT-29): 5.3 nM
